Test: gradient 5% acetonitrile 3 min, to 50% in 2 min, to 85% in 15 min, held 3 min, 100 µL/min
Conditions: column: Zorbax Extend-C18 2.1 x 50 mm; eluents: water / acetonitrile, 0.1% formic acid
Outline: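 Retention time was recorded from adduct peaks, which were picked computationally and each inspected manually. Pure standards ran in mixtures of ~100 molecules on HPLC coupled to a quadrupole time-of-flight mass spectrometer, in positive and negative ionization mode, through a Zorbax Extend-C18 column (2.1 × 50 mm, 1.8 μm) at 100 μL/min. Eluents were water and acetonitrile, each with 0.1% formic acid.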

RP-LC retention time [s] | SMILES
566 | O=C(c1cccs1)N1CC(C(=O)N2CCC(O)CC2)C1
703 | Cc1ccc(-c2nnc(-c3nc(NCc4ccccn4)c4ccccc4n3)o2)cc1
552 | COCC(=O)Nc1cc(=O)n(C)c(=O)n1C
931 | COC(=O)c1onc(C(=O)c2ccccc2)c1C(=O)OC
637 | O=C(NCC(F)(F)F)C1CCN(S(=O)(=O)CCN2C(=O)CCCC2=O)CC1
985 | CCOC(=O)N1CCC(NC(=O)c2cc3sc(Cl)cc3n2CC)CC1
663 | CCOC(=O)C1CCN(C(=O)C2CCN(c3cnc4nccnc4c3)CC2)CC1
591 | COc1cccc(CCC(=O)N2CCN(C3=NC=CN4CC(C)N=C34)CC2)c1 (centres undefined)
883 | CC1=C(c2ccc(F)cc2)S(=O)(=O)N=C1N1CCCN(C(=O)CC2CCCC2)CC1
614 | O=C(NCc1csc(C2CCN(C(=O)C3CCCO3)CC2)n1)C1CC1 (centres undefined)
836 | COc1ccccc1NC(=O)N1C[C@@H]2CN(S(=O)(=O)c3ccc(C)cc3)C[C@H](C1)O2
589 | CC(C)S(=O)(=O)c1cccc(-c2nnc(N)o2)c1
1070 | COc1ccccc1-c1nc(COC(=O)C2=CN(Cc3ccccc3)S(=O)(=O)N=C2C)no1
595 | c1ccc([C@@H]2NCCO[C@H]2COc2ccccn2)cc1
565 | CCn1cc(CN2CCCC(Cn3cc(COC)nn3)C2)c2ccccc21 (centres undefined)
1180 | CCN1C(=O)COc2ccc(-c3noc(-c4ccccc4Br)n3)cc21
725 | COCCN1CCn2cc(S(=O)(=O)Nc3ccc(F)cc3Cl)cc2C1=O
681 | Cc1ccc(CN2CC(Oc3ccc(-c4noc(-c5ccncc5)n4)cc3)C2)o1
796 | Cc1ccccc1CN1CCc2nc(N3CCN(c4ccccc4F)CC3)ncc2C1
1150 | Cc1ccc(-c2noc(Cn3c(=O)n(-c4ccc(Cl)cc4)c(=O)c4sccc43)n2)cc1C
784 | Cc1ccc(N2CCCS2(=O)=O)cc1NS(=O)(=O)CCc1ccccc1
753 | O=C(c1ccco1)N1CCN(C(=O)c2sc3ncccc3c2-n2cccc2)CC1

RP-LC retention time [s] | SMILES
722 | O=C(c1ccc2c(c1)OCO2)N1CCCCC1
803 | O=C(NC1CCCC1)c1ccc2ccnc(N3CCN(c4ccc(F)cc4)CC3)c2c1
698 | CCCCS(=O)(=O)N1CCCC(Cn2c(C3CC3)nc3cccnc32)C1 (centres undefined)
854 | CCC(C)NC(=O)Cn1c(=O)c2cnc(-c3ccccc3)nc2n(C)c1=O (centres undefined)
702 | CCNC(=O)c1cc(N2CCCC2)nc2c(C)cccc12
765 | O=C(c1ccc(Cl)cc1)N1CCC2(C1)C(=O)Nc1ccccc12 (centres undefined)
947 | O=C(NCc1ccco1)c1ccc2cnn(Cc3cccc(Cl)c3)c2c1
757 | Cc1ccc(CNC(=O)Cn2ncc3c(c2=O)N(C2CC2)C(=O)CS3)cc1C
887 | CC1CCCN(C(=O)c2cn(-c3cc(-c4nc(C5CC5)no4)ccn3)cn2)C1 (centres undefined)
555 | COc1ccc(CN2CCc3nc(N4CCN(c5ccccn5)CC4)ncc3C2)c(OC)c1OC
750 | CN1C(=O)C2(CCN(C(=O)c3ccccc3F)C2)c2ccccc21 (centres undefined)
758 | COC(=O)Cn1c(C2CC(=O)N(c3cc(Cl)ccc3OC)C2)nc2ccccc21 (centres undefined)
905 | Cc1nn2c(CNS(=O)(=O)c3cc(F)cc(F)c3)c(-c3ccccc3)nc2s1
787 | Cc1ccccc1OCC(O)CN1CCN(c2ccc(Cl)cc2)CC1 (centres undefined)
876 | COc1ccc(C(=O)N2CCCC2c2nc(-c3ccc(OC)c(OC)c3)no2)cc1F (centres undefined)
737 | Cc1ccn2c(NC(=O)c3ccc(C)c(C)c3)c(-c3ccc(F)cc3)nc2c1
665 | CCC(=O)NC(C)c1nc(-c2ccccc2OC)no1 (centres undefined)
1360 | CN(C)c1ccc(-c2nnc3sc(-c4ccc5ccccc5n4)nn23)cc1
598 | O=C(Cn1c(=O)c2cccn2c2ccc(F)cc21)NCCCN1CCCC1
849 | CCCn1ccc2sc(C)c(C(=O)N3CCN(c4ccccc4)CC3)c2c1=O
888 | O=C(c1ccc(Cl)cc1Cl)N1CCN(c2cc(-c3cccs3)[nH]n2)CC1
923 | CCCn1cc(CCNS(=O)(=O)c2ccc(C)c(C)c2)c2cccnc21

RP-LC retention time [s] | SMILES
766 | CCn1cc(CCNC(=O)c2ccc(Br)cc2)c2cccnc21
842 | CCN(CC)S(=O)(=O)c1ccc2c(c1)CC(C(=O)NCCc1ccc(C)cc1)N2C(C)=O (centres undefined)
564 | Cc1cc(C)n(CCC(=O)N[C@@H]2CN(S(C)(=O)=O)C[C@H]2CN(C)C)n1
594 | Cc1ccc(NC(=O)N2CCN(CCn3cnc4cccnc43)CC2)c(C)c1
1010 | Cc1ccc(-c2csc(NC(=O)Cn3c(=O)sc4ccccc43)n2)cc1
685 | O=C(Cn1c(=O)c2cccn2c2ccc(F)cc21)NC1CC1
1040 | COc1ccc(Cl)cc1S(=O)(=O)c1cnc(N2CCC(C)CC2)nc1N
800 | CCOC(=O)c1oc2ccccc2c1NC(=O)c1ccccc1S(C)(=O)=O
1100 | COc1cc(Nc2nc(-c3nnn(-c4ccc(Cl)cc4)c3C)ns2)cc(OC)c1
642 | O=C(NCCCN1CCCC1)c1ccc2nc(Cc3ccccc3)oc2c1
709 | O=C([C@@H]1C[C@H](Oc2ccccc2)CN1C1CCOCC1)N1CCc2ccccc21
974 | COc1ccc(OC)c(NC(=O)C2CCN(S(=O)(=O)c3c(C)nn(-c4ccccc4)c3C)CC2)c1
716 | Cc1ccc(-c2nnc(-c3ccc(-n4ccnc4)nc3)o2)cc1F
912 | CN(C)C(=O)C1CCN(c2nc3ccc(-c4ccc(F)cc4)nc3s2)CC1
624 | CO[C@H]1C(=O)N(C2CCN(S(=O)(=O)c3ccc(C#N)cc3)CC2)[C@H]1c1ccncc1
742 | COc1nn(C)cc1C(=O)N1CCCC(COCc2ccccc2)C1 (centres undefined)
596 | Cc1ccnc(OCC(=O)NCCNc2cc(-n3nc(C)cc3C)nc(C)n2)n1
806 | O=C(CCc1conc1-c1ccccc1)NCc1ccc2c(c1)OCO2
1010 | COc1ccc(OCc2nc(-c3ccc(N4CCCCC4)nc3)no2)cc1
1280 | Cc1ccc(Cn2c(=O)c3sccc3n(Cc3nc(-c4ccc(OC(C)C)cc4)no3)c2=O)cc1
904 | Cc1cc(N2CCC(NC(=O)Nc3cccc(F)c3C)C2=O)ccc1F (centres undefined)
907 | CCOC(=O)c1ccc(N2C=C(C#N)S(=O)(=O)c3cc(F)ccc32)cc1

RP-LC retention time [s] | SMILES
678 | CCc1ccc(NC(=O)Cn2nc3nc(N4CCCC4)ccn3c2=O)cc1
724 | CSc1ccc(Cl)c(C(=O)NCCc2cn(C)c3ncccc23)c1
714 | O=C(NC1CCCCCC1)c1ccc(Cn2cncn2)cc1
1130 | COc1ccc2c(c1)-c1nc(NC(=O)c3ccccc3C)sc1CC2
835 | CCCNC(=O)Cn1c(=O)cc(-c2nc(C(C)C)no2)c2ccccc21
726 | CC(=O)Nc1nc(-c2ccc3c(c2)N(C)C(=O)CO3)c(C)s1
602 | CCN1CCN(C(=O)C2CCN(S(=O)(=O)c3ccc4c(c3)sc(=O)n4CC)CC2)CC1
1020 | Cc1ccc(C)c(N2CCN(c3ccnc(SCC(=O)NC(C)CCc4ccccc4)n3)CC2)c1 (centres undefined)
711 | O=C([C@H]1C[C@@H](F)CN1S(=O)(=O)c1ccc(Cl)cc1)N1CCOCC1
788 | Cc1ccc(-c2nc3c(C)cccn3c2Nc2ccccc2C)cc1
700 | O=C(O)c1ccc(-c2c[nH]c3ncc(-c4ccccc4)cc23)cc1C1CCCC1
689 | Cc1nc(C(=O)NCCc2ccc(Cl)cc2)c(C)n1C1CCN(S(C)(=O)=O)CC1
731 | CC1CCCN(C(=O)C2CCN(S(=O)(=O)c3ccc4c(c3)CCCC(=O)N4)CC2)C1 (centres undefined)
937 | COc1cc(Cc2nc(-c3cccc(-c4ccn[nH]4)c3)no2)cc(OC)c1
1200 | Cn1c(C(=O)NC2CCCCCC2)cc2sc(Cl)cc21
654 | COc1ccc(F)cc1S(=O)(=O)N1CCn2c(nn(C)c2=O)C1
635 | CCN(CC)CCNC(=O)c1c(C)oc2c1C(=O)c1ccccc1C2=O
690 | CC(NC(=O)Cc1nnc(-c2ccc3ncccc3c2)o1)c1ccccc1 (centres undefined)
1220 | CCOc1ccc(-c2nc(Cc3noc(-c4cccc(OC)c4)n3)c(C)o2)cc1
879 | CN1C(=O)c2cc(S(=O)(=O)Nc3cccc(F)c3)ccc2Oc2cccnc21
795 | Fc1ccc(CN2CCc3nc(N4CCN(c5ccccc5F)CC4)ncc3C2)c(F)c1

SMILES | RP-LC retention time [s]
CCC1=C[C@@H]2CN3CCc4c([nH]c5ccccc45)[C@@](C(=O)OC)(C2)[C@@H]13 | 728
O=C(c1cn(-c2cc(N3CCCCC3)ncn2)cn1)N1CCC2(CC1)OCCO2 | 750
